The test system of one assay is RAMOS. Put plainly: expanded in vitro screen, RAMOS. Format: cell-based. The following applies: Homo sapiens, Burkitts. As for the experimental part:
(§1) An expanded in vitro screen was performed of spisulosine 285 against a series of different cell lines.

The next assay relates to CV-1. Put plainly: expanded in vitro screen, CV-1 normal cell line. The conditions noted are these: Primates, CV-1, Kidney fibroblasts. Format: cell-based, monkey. As to the method:
as §1

A further assay has as its system A-549. Put plainly: in vitro tumor cell line activity, A-549. Format: cell-based.
Assay [1] has as its system L1210 murine lymphocytic leukemia cells. Put plainly: L1210 morphological change (pointed cells). Format: cell-based. The conditions noted are these: for % Pointed cells: percent of the living cells; for % Pointed Cells 1st: 27 h. As to the method:
Referring to FIG. 1, in the L1210 assay some of the cells changed from being spherical (FIG. 1A) to ovoid with long points approximately […] apart (FIG. 1B). Several other forms have also been observed in assays of these extracts, including cells with points not […] apart (FIG. 1C), cells with more than two points (FIG. 1D), cells with a bulge (FIG. 1E) and cells with a bulge replacing one of the points (FIG. 1F). However, the form with two sharp, opposing points was by far the predominant and characteristic one observed. This type of morphological change had not previously been observed during the screening of over 1000 marine extracts.
As discussed above, the spisulosines caused a distinct morphological change in L1210 leukemia cells, in addition to cytotoxicity. This bioactivity, which was recorded as the percentage of living cells in which altered morphology was observed, could be observed sometimes as early as 13 h after the start of the assay and reached a maximum at 50–60 h, after which it decreased. […] The morphological effect was usually measured 30–35 h after the start of the assay and again about 24 h later, while the cytotoxicity was determined when the number of cells in the controls reached approximately 8000, usually in 3 days after the assay was begun. It should be noted that the pointed cells were live cells and that they were counted as such for the cytotoxicity reading. Also, assays in which 100% cytotoxicity was recorded may still have contained live cells (<0.5%) which may or may not have been pointed. All morphologically-changed cells were counted in the pointed cell percentage.
Morphologically-changed cells (FIGS. 1A–1F) were counted as living cells when determining the percent inhibition of growth. Morphological changes were assessed throughout the assay period. The percentage of pointed cells was determined by counting the number of altered cells in approximately 60 living cells. This percentage varied with the length of time the assay had been running. It generally reached its maximum about 50 hours after the start of the assay, but pointed cells could be observed as early as 13 hours after the start of the assay and could usually still be seen when the percent growth inhibition was measured. The percentages of pointed cells were often counted both after about 35 and after 55 hours. The time that this measurement was made is indicated with the data.

For another assay, the system named is PANC-1. Briefly: expanded in vitro screen, PANC-1. It counts as cell-based. The following applies: Homo sapiens; PANC-1, Pancreas, solid. As to the method: as §1
Assay [2] deals with human prostate cancer (PC-3). Briefly: xenograft model of human prostate cancer. It counts as in vivo. The conditions noted are these: for % T/C / Comments: intraperitoneal. As to the method:
Spisulosine 285 was tested in in vivo studies against xenograft models of human prostate cancer (PC-3) and human renal cancer (MRI-H-121). These models use subcutaneously implanted solid human tumors that grow and increase in volume over time. The mean volume of tumor growth in control animals provides the basis for comparison. […] A level of activity that is less than 40% T/C is considered statistically significant. The doses of spisulosine used were given at the maximum tolerated, non lethal dose (MTD), ½ MTD and ¼ MTD. Delivery of the drug was by the intraperitoneal route.
Background: A xenograft is tissue or cells of one species grown in another, often human tumour cells in immunodeficient mice.

Another assay concerns H9. Put plainly: expanded in vitro screen, H9. It counts as cell-based. The conditions noted are these: Homo sapiens; H9, Lymphoma. As to the method:
as §1

A further assay relates to SW684. Briefly: expanded in vitro screen, SW684. The following applies: Homo sapiens; SW684, Fibrosarcoma. It counts as cell-based. As for the experimental part:
as §1

In another assay the test system is Vero cells. Put plainly: Vero cell morphology (Example A). Format: cell-based. The conditions noted are these: 0.5 mM, 4 hours. As for the experimental part:
Vero cells were grown in Dulbecco's modified Eagle medium supplemented with 10% foetal bovine serum. Spisulosine or LPA were added to these cultures to a concentration of […] and 50–10 mM respectively, from 4 to 24 hours. Cells were counted with the […] haemocytometer procedure using a solution of 0.4% Trypan blue in Hanks buffered Saline (Celis and Celis, “General Procedures for Tissue Culture in Cell Biology, a Laboratory Handbook” Academic Press Inc, Vol 1, pp. 5–17.)
Vero cells were incubated with spisulosine 285 (0.5 mM) for 4 hours. […] Panel c represents a higher magnification of the culture to which spisulosine was added.

In the next assay the test system is MEL-28. Put plainly: in vitro tumor cell line activity, MEL-28. It counts as cell-based.

A word on the IC50: it is the concentration at which inhibition is half-maximal.

Turning to `CCCCCCCCCCCCCCC[C@@H](O)[C@H](C)N` [Spisulosine 285, (2S,3R)-2-Amino-3-octadecanol], the IC50 was determined as 0.0482 nM in the assay with RAMOS; 0.0276 nM in the assay on CV-1; 1.71 pM in the assay on PANC-1; 0.031 nM in the assay with H9; 1.05 nM with SW684. Besides, the “active against tumor cell line in vitro (concentration)” value with A-549 and in the assay with MEL-28 was 0.05 mg/mL each time. In addition, the “L1210 morphological alteration / pointed cell activity (in words)” value in assay [1] is “pointed cell activity”. Further, the “% Pointed cells” value in assay [1] (0.01 μg/ml) was 1%; in [1] (0.05 μg/ml), 71%; in [1] (0.1 μg/ml) it was 62%; in assay [1] (0.5 μg/ml), 97%. Moreover, the “% Pointed Cells 1st” value was 33% in assay [1] (0.1 μg/ml), 56% in assay [1] (0.5 μg/ml), 64% in assay [1] (1 μg/ml) and “ad” in [1] (5 μg/ml). In addition, the “effect on tumour size (in words)” value in assay [2] (at higher doses) is on record as “significantly reducing the tumour size”. The “% T/C” value in assay [2] (total dose 2.499 mg/kg, day 15) is given as 223%; in assay [2] (total dose 5.010 mg/kg, day 11), −1%; in assay [2] (total dose 9.990 mg/kg, day 11), −21%. The Comments result was “stasis (complete remission)” in assay [2] (total dose 5.010 mg/kg, day 11) and “stasis (complete remission)” in [2] (total dose 9.990 mg/kg, day 11). The cell shape entry in the assay with Vero cells is given as “altered from polygonal (untreated cells, panel a) to a fusiform shape”.

Source of the values: patent US7109244B2, “Compositions and methods comprising long-chain, straight-chain 2-amino-3-hydroxyalkanes” (priority 1997, dated 2006).
